SMILES strings stand for the structures.

For one data set, the target named is T1, rat mGlu2 receptor (Rattus norvegicus, UniProt P31421).
T1 construct: expressed in transfected cells; membranes prepared
Description: [3H]-LY354740 binding on mGlu2 transfected CHO cell membranes. The note with it: inhibition of 10 nM [3H]-LY354740 binding, membranes of CHO cells transfected with rat mGlu2, room temperature, 1 hour. The source says:
[^3H]-LY354740 Binding on mGlu2 Transfected CHO Cell Membranes. Transfection and Cell Culture
cDNA encoding the rat mGlu2 receptor protein in pBluescript II was subcloned into the eukaryotic expression vector pcDNA I-amp from Invitrogen Ltd (Paisley, UK). This vector construct (pcD1mGR2) was co-transfected with a psvNeo plasmid encoding the gene for neomycin resistance, into CHO cells by a modified calcium phosphate method described by Chen & Okayama (1988). The cells were maintained in Dulbecco's Modified Eagle medium with reduced L-glutamine (1 mM final concentration), 36 mg/L L-Proline and 10% dialysed foetal calf serum from Gibco-Invitrogen; the medium was supplemented with 500 microM α-methyl-4-carboxyphenylglycine (MCPG). Selection was made in the presence of G-418 (300 ug/ml final concentration). Clones were identified by reverse transcription of 5 μg total RNA, followed by PCR using mGlu2 receptor specific primers 5′-[…]-3′ and 5′-[…]-3′ in 60 mM Tris HCl (pH 10), 15 mM (NH4)2SO4, 2 mM MgCl2, 25 units/ml Taq Polymerase with 30 cycles annealing at 60° C. for 1 min., extention at 72° C. for 30 s, and 1 min. 95° C. denaturation.
Cells, cultured as above, were harvested and washed three times with cold PBS and frozen at −80° C. The pellet was resuspended in cold 20 mM HEPES-NaOH buffer containing 10 mM EDTA (pH 7.4), and homogenised with a polytron (Kinematica, A G, Littau, Switzerland) for 10 s at 10 000 rpm. After centrifugation for 30 min. at 4° C., the pellet was washed once with cold 20 mM HEPES-NaOH buffer containing 0.1 mM EDTA, (pH 7.4). After a second centrifugation for 30 min. at 4° C. the pellet was resuspended in cold 20 mM HEPES-NaOH buffer containing 0.1 mM EDTA, (pH 7.4). Protein content was measured using the Micro BCA method from Pierce-Perbio (Rockford, Ill., USA) using bovine serum albumin as standard.
After thawing, the membranes were resuspended in cold 50 mM Tris-HCl buffer containing 2 mM MgCl2 (pH 7.4) (binding buffer). The final concentration of the membranes in the assays was 25 μg protein/ml. Inhibition experiments were performed with membranes incubated with 10 nM [^3H]-LY354740 at room temperature, for 1 hour, in presence of various concentrations of the compound to be tested. Following the incubations, membranes were filtered onto Whatmann GF/B glass fiber filters or onto GF/B Unifilter plates and washed 5 times with cold binding buffer. Non specific binding was measured in the presence of 10 μM (2S,2′R,3′R)-2-(2′3′-Dicarboxycyclopropyl)glycine (DCG IV from Tocris, Ellisville, Mo. USA). After transfer of the filters into plastic vials containing 10 ml of Ultima-gold scintillation fluid from Perkin-Elmer (Boston, Mass., USA), the radioactivity was measured by liquid scintillation in a Tri-Carb 2500 TR counter (Packard, Zürich, Switzerland). For 96-Unifilter plates the radioactivity was measured after addition of Microscint 40 scintillation fluid (Perkin Elmer, Boston Mass.) using a TopCount NXT (Packard)
The inhibition curves were fitted with a four parameter logistic equation giving IC50 values, and Hill coefficients.

T1 sequence (P31421 19-872): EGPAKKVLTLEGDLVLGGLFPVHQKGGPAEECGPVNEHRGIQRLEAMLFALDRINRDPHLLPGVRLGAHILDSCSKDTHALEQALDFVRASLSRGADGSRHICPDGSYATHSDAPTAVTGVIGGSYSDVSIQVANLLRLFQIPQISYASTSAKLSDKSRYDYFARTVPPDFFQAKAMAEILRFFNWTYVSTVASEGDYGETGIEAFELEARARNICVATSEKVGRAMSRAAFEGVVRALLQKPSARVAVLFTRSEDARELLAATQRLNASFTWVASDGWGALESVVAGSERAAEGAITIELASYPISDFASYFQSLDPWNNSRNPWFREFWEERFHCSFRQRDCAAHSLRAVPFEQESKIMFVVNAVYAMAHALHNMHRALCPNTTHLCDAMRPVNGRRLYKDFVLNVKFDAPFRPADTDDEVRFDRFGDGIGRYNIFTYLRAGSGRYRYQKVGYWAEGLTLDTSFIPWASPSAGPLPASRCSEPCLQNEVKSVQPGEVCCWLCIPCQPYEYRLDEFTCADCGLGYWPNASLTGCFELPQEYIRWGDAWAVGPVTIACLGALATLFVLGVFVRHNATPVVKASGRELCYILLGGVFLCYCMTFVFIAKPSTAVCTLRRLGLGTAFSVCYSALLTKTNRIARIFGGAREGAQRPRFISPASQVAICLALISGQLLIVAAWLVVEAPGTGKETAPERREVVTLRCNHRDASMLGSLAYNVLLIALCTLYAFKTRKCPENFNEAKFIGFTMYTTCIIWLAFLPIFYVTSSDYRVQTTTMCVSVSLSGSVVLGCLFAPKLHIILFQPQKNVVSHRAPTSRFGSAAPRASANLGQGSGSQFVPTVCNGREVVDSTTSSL

Take `Cc1cc(-c2ccc(C(F)(F)F)cc2)cc(-c2cccc(-c3ccc(S(N)(=O)=O)cc3)n2)n1` [Example 73, 4-[6′-Methyl-4′-(4-trifluoromethyl-phenyl)-[2,2′]bipyridinyl-6-yl]-benzenesulfonamide]: the melting point (usually the temperature, or range, at which the solid turns liquid) fell in the range of 215 to 227 °C. The Ki (commonly the equilibrium dissociation constant of an inhibitor or competing ligand from its target) on rat mGlu2 receptor was determined as 19 nM.

`Nc1ccc(-c2cc(-c3cc(C(F)(F)F)cc(-c4ccc(C(F)(F)F)cc4)n3)ccn2)cn1` [Example 74, 4-Trifluoromethyl-6-(4-trifluoromethyl-phenyl)-[2,4′;2′,3″]terpyridin-6″-ylamine] yielded a melting point of 194 to 196 °C. The compound further returned a Ki on rat mGlu2 receptor of 10 nM.

As to `CCOc1cc(-c2cc(C(F)(F)F)nc(-c3nc(-c4ccc(N)nc4)no3)n2)ccc1C(F)(F)F` [Example 90, 5-{5-[4-(3-Ethoxy-4-trifluoromethyl-phenyl)-6-trifluoromethyl-pyrimidin-2-yl]-[1,2,4]oxadiazol-3-yl}-pyridin-2-ylamine], the melting point worked out at 216 °C. The same compound had a Ki on rat mGlu2 receptor of 55 nM.

As for `OCc1ccc(-c2cccc(-c3nc(-c4ccc(C(F)(F)F)cc4)cc(C(F)(F)F)n3)c2)cc1` [Example 114, {3′-[4-Trifluoromethyl-6-(4-trifluoromethyl-phenyl)-pyrimidin-2-yl]-biphenyl-4-yl}-methanol], the melting point was 171 °C. For the same compound, the Ki at rat mGlu2 receptor was determined as 6 nM.

Compound `Nc1ncc(-c2cccc(-c3nc(-c4ccc(C(F)(F)F)c(OCC(F)(F)F)c4)cc(C(F)(F)F)n3)c2)cn1` [Example 138, 5-(3-{4-[3-(2,2,2-Trifluoro-ethoxy)-4-trifluoromethyl-phenyl]-6-trifluoromethyl-pyrimidin-2-yl}-phenyl)-pyrimidin-2-ylamine] gave a melting point of 250 °C. In addition, the Ki at rat mGlu2 receptor stood at 28 nM.

In turn, `FC(F)(F)c1ccc(-c2cc(C(F)(F)F)nc(-n3cnc(-c4ccncc4)n3)n2)cc1` [Example 148, 2-(3-Pyridin-4-yl-[1,2,4]triazol-1-yl)-4-trifluoromethyl-6-(4-trifluoromethyl-phenyl)-pyrimidine] returned a melting point of 248 °C. Besides, on rat mGlu2 receptor, the Ki turned out to be 49 nM.

`CC(C)(C)NS(=O)(=O)c1cccc(-c2cccc(-c3nc(-c4ccc(C(F)(F)F)cc4)cc(C(F)(F)F)n3)c2)c1` [Example 155, 3′-[4-Trifluoromethyl-6-(4-trifluoromethyl-phenyl)-pyrimidin-2-yl]-biphenyl-3-sulfonic acid tert-butylamide] came in with a melting point of 200 °C. This compound also came in with a Ki on rat mGlu2 receptor of 8.4 nM.

On to `Nc1ncc(-c2cn(-c3nc(-c4cccc(Cl)c4)cc(C(F)(F)F)n3)cn2)cn1` [Example 187, 5-{1-[4-(3-Chloro-phenyl)-6-trifluoromethyl-pyrimidin-2-yl]-1H-imidazol-4-yl}-pyrimidin-2-ylamine], for which the melting point turned out to be 281 °C. Besides, the affinity on rat mGlu2 receptor, expressed as Ki, was 13.7 nM.

In the case of `Cc1cc(-c2ccc(Cl)cc2)nc(-n2cnc(-c3cccc(S(C)(=O)=O)c3)c2)n1` [Example 210, 4-(4-Chloro-phenyl)-2-[4-(3-methanesulfonyl-phenyl)-imidazol-1-yl]-6-methyl-pyrimidine], the melting point worked out at 233 °C. The Ki at rat mGlu2 receptor came to 23 nM.

In the case of `CS(=O)(=O)c1cccc(-c2cc(-c3nc(-c4ccc(C(F)(F)F)cc4)cc(C(F)(F)F)n3)ccn2)c1` [Example 218, 2-[2-(3-Methanesulfonyl-phenyl)-pyridin-4-yl]-4-trifluoromethyl-6-(4-trifluoromethyl-phenyl)-pyrimidine], the melting point was 238.5 °C. Further, the Ki at rat mGlu2 receptor amounted to 3 nM.

As for `NS(=O)(=O)Nc1cccc(-c2cccc(-c3nc(-c4ccc(C(F)(F)F)cc4)cc(C(F)(F)F)n3)c2)c1` [Example 221, N-{3′-[4-Trifluoromethyl-6-(4-trifluoromethyl-phenyl)-pyrimidin-2-yl]-biphenyl-3-yl}-sulfamide], the melting point is 174 °C. On rat mGlu2 receptor, this compound came in with a Ki of 7 nM.

`CN(C)S(=O)(=O)Nc1cccc(-c2cccc(-c3nc(-c4ccc(C(F)(F)F)cc4)cc(C(F)(F)F)n3)c2)c1` [Example 222, N-{3′-[4-Trifluoromethyl-6-(4-trifluoromethyl-phenyl)-pyrimidin-2-yl]-biphenyl-3-yl}-N′,N′-dimethyl-sulfamide] registered a melting point of 113 °C. This compound also yielded a Ki on rat mGlu2 receptor of 12.4 nM.

For `CS(=O)(=O)Nc1cccc(-c2cccc(-c3nc(-c4ccc(C(F)(F)F)cc4)cc(C(F)(F)F)n3)c2)c1` [Example 223, N-{3′-[4-Trifluoromethyl-6-(4-trifluoromethyl-phenyl)-pyrimidin-2-yl]-biphenyl-3-yl}-methanesulfonamide], the melting point was 191 °C. The inhibition constant (Ki) on rat mGlu2 receptor was 13 nM.

Compound `Cc1cn(-c2cccc(-c3cc(-c4ccc(C(F)(F)F)cc4)cc(C)n3)c2)cn1` [Example 227, 2-Methyl-6-[3-(4-methyl-imidazol-1-yl)-phenyl]-4-(4-trifluoromethyl-phenyl)-pyridine] returned a melting point of 126 to 132 °C. At rat mGlu2 receptor, the Ki turned out to be 34 nM.

Compound `Cc1cc(-c2ccc(C(F)(F)F)cc2)cc(-c2nc(-c3cccc(S(N)(=O)=O)c3)no2)n1` [Example 237, 3-{5-[6-Methyl-4-(4-trifluoromethyl-phenyl)-pyridin-2-yl]-[1,2,4]oxadiazol-3-yl}-benzenesulfonamide] showed a melting point of 277 °C. Further, on rat mGlu2 receptor, the affinity, expressed as Ki, was 4 nM.

With `Cc1cc(-c2ccc(C(F)(F)F)cc2)cc(-c2cccc(C#N)c2)n1` [Example 242, 3-[6-Methyl-4-(4-trifluoromethyl-phenyl)-pyridin-2-yl]-benzonitrile], the melting point came out at 140 °C. Further, the affinity at rat mGlu2 receptor corresponds to a Ki of 42 nM.

`NS(=O)(=O)c1cccc(-c2noc(-c3cc(C(F)(F)F)cc(-c4ccc(C(F)(F)F)cc4)n3)n2)c1` [Example 243, 3-{5-[4-Trifluoromethyl-6-(4-trifluoromethyl-phenyl)-pyridin-2-yl]-[1,2,4]oxadiazol-3-yl}-benzenesulfonamide] yielded a melting point of 211 °C. This compound had a Ki at rat mGlu2 receptor of 3 nM.

As to `NS(=O)(=O)c1cccc(-c2cccc(-c3cc(-c4ccc(C(F)(F)F)cc4)cc(C(F)(F)F)n3)c2)c1` [Example 244, 3′-[6-Trifluoromethyl-4-(4-trifluoromethyl-phenyl)-pyridin-2-yl]-biphenyl-3-sulfonic acid amide], the melting point worked out at 187 °C. In addition, the Ki at rat mGlu2 receptor amounted to 5 nM.

For the compound `Cc1cc(-c2ccc(Cl)c(Cl)c2)cc(-n2ccnc2)n1` [Example 247, 4-(3,4-Dichloro-phenyl)-2-imidazol-1-yl-6-methyl-pyridine], the melting point turned out to be 227 °C. The compound also showed a Ki on rat mGlu2 receptor of 41 nM.

For `Cc1cc(-c2ccc(Cl)c(Cl)c2)cc(-c2cccc(-c3ccc(N)nc3)c2)n1` [Example 249, 5-{3-[4-(3,4-Dichloro-phenyl)-6-methyl-pyridin-2-yl]-phenyl}-pyridin-2-ylamine], the melting point was 99 °C (dec.). For the same compound, the affinity at rat mGlu2 receptor corresponds to a Ki of 9 nM.

`Cc1cc(-c2ccc(C(F)(F)F)cc2)cc(-c2cccc(-c3cc(S(N)(=O)=O)c(F)cc3F)c2)n1` [Example 270, 4,6-Difluoro-3′-[6-methyl-4-(4-trifluoromethyl-phenyl)-pyridin-2-yl]-biphenyl-3-sulfonic acid amide]: the melting point is 227 °C. This compound also registered an inhibition constant Ki at rat mGlu2 receptor of 6 nM.

In the case of `Cc1cc(-c2ccc(C(F)(F)F)cc2)cc(-c2cccc(-c3ccc(S(N)(=O)=O)s3)c2)n1` [Example 271, 5-{3-[6-Methyl-4-(4-trifluoromethyl-phenyl)-pyridin-2-yl]-phenyl}-thiophene-2-sulfonic acid amide], the melting point stood at 215 °C. This compound also displayed a Ki at rat mGlu2 receptor of 3 nM.

The values above are taken from patent US8183262B2, “Pyridine derivatives as mGluR2 antagonists” (Hoffmann-La Roche Inc., priority 2007, dated 2012).
